# Laboratory results reported in ChEMBL document CHEMBL4814078, “Novel CFTR Modulators for Treating Cystic Fibrosis” (ACS Med Chem Lett, 2021).
# Molecular target: Cystic fibrosis transmembrane conductance regulator (Homo sapiens, UniProt P13569)
# Assay: Potentiation of CFTR in primary human epithelial enteroid cells assessed as chloride transport in presence of forskolin by measuring membrane potential incubated for 18 to 24 hrs by FLIPR Tetra based dye assay
# Type: tissue-based, Epithelial cell
# Sequence of Cystic fibrosis transmembrane conductance regulator (P13569 whole entry): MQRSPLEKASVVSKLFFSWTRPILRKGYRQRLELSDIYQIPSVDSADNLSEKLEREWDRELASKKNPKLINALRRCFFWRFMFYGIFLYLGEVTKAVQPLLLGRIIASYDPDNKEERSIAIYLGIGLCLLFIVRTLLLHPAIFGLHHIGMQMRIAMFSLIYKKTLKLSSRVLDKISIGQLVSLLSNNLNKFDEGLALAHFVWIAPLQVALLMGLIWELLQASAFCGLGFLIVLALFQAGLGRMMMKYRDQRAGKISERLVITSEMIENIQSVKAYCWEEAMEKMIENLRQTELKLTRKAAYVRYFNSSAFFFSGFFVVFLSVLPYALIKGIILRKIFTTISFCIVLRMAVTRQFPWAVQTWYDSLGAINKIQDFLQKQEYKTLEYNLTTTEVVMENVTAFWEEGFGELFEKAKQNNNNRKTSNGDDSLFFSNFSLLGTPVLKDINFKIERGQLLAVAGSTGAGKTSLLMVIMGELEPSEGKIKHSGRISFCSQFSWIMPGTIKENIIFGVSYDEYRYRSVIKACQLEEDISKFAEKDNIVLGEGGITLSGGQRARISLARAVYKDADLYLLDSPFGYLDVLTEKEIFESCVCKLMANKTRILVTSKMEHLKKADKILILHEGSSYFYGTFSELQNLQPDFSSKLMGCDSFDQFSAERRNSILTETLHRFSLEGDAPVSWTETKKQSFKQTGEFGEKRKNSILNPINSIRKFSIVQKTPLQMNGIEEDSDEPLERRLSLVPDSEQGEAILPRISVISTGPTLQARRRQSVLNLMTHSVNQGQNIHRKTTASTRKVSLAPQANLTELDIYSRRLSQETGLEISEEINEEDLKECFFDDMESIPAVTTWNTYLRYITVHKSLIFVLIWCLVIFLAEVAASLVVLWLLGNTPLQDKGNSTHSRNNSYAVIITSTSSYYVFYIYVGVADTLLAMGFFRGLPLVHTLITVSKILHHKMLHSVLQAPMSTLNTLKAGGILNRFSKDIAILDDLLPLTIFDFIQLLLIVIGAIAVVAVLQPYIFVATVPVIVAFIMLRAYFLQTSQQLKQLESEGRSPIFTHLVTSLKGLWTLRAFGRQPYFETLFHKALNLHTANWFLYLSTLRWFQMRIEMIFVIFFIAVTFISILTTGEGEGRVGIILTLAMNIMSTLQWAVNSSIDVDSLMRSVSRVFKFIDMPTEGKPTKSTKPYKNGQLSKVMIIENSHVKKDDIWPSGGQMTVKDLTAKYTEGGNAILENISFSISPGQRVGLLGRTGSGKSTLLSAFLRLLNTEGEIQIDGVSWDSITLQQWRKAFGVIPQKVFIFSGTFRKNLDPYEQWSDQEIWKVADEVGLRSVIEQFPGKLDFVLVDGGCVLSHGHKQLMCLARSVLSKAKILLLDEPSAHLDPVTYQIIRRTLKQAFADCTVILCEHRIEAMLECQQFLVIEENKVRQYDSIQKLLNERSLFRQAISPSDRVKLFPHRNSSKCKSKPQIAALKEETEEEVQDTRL
row,Compound,EC50 [nM]
1,CC1(C)C[C@@H]2CCCNc3cccc(n3)S(=O)(=O)NC(=O)c3ccc(-n4ccc(OCC[Si](C)(C)C)n4)nc3N1C2,< 1000
2,CC(C)(C)CC[Si](C)(C)c1ccn(-c2ccc3c(n2)N2C[C@@H](CCCNc4cccc(n4)S(=O)(=O)NC3=O)CC2(C)C)n1,< 1000
3,CC1(C)C[C@@H]2CCCNc3cccc(n3)S(=O)(=O)NC(=O)c3ccc(-n4ccc(OCCC[Si](C)(C)C)n4)nc3N1C2,< 1000
4,CC1(C)C[C@@H]2CCCNc3cccc(n3)S(=O)(=O)NC(=O)c3ccc(-n4ccc(OC[Si](C)(C)C)n4)nc3N1C2,< 1000
5,CC1(C)C[C@@H]2CCCNc3cccc(n3)S(=O)(=O)NC(=O)c3ccc(-n4ccc(OC[Si](C)(C)C5(C(F)(F)F)CC5)n4)nc3N1C2,< 1000
6,CC1(C)C[C@@H]2CCCNc3cccc(n3)S(=O)(=O)NC(=O)c3ccc(-n4ccc(OCCC5([Si](C)(C)C)CC5)n4)nc3N1C2,< 1000
